Target: T1, hCRTH2 (Homo sapiens, UniProt Q9Y5Y4)
T1 construct: expressed in transfected cells; host or cells: HEK (human embryonic kidney) cells expressing hCRTH2; membrane preparation
T1 sequence (Q9Y5Y4 1-395): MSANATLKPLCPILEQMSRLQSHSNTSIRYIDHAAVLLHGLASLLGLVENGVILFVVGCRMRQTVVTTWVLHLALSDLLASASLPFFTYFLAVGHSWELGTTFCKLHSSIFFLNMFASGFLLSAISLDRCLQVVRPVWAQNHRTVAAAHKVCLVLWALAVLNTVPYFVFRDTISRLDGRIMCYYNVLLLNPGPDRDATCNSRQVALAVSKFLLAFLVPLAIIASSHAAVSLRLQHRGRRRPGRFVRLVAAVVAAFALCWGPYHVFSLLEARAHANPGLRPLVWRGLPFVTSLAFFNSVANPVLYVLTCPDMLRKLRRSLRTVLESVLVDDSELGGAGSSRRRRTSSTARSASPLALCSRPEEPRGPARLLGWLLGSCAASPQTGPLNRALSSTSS
Assay: Radioligand binding assay ([3H]PGD2 competition, HEK-hCRTH2 membranes)
Conditions: [3H]PGD2 competition, Table B
Outline: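 Using membranes of an HEK line stably carrying hCRTH2, ligands were tested against [3H]PGD2 (3.0 nM) in pH 7.4 Tris buffer containing 2 mM MnCl2 and 1 mM EDTA. After one hour at room temperature, filters were washed cold and counted.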

Structure (SMILES)	Ki [nM]
CC(CCCc1nc2cc(C(=O)N[C@@H](C)c3ccc(Cl)cc3)ccc2nc1-c1ccc(Cl)cc1)C(=O)O (stereo partly drawn) [compound 392, 5-(3-(4-chlorophenyl)-7-(((S)-1-(4-chlorophenyl)ethyl)carbamoyl)quinoxalin-2-yl)-2-methylpentanoic acid]	2.1 to 20
Cc1ccc(CNC(=O)c2ccc3nc(-c4ccc(Cl)cc4)c(CC4CCC(C(=O)O)C4)nc3c2)cc1 (stereo not shown) [compound 393, 3-((3-(4-chlorophenyl)-7-((4-methylbenzyl)carbamoyl)quinoxalin-2-yl)methyl)cyclopentane-carboxylic acid]	2.1 to 20
C[C@@H](NC(=O)c1ccc2nc(-c3ccc(Cl)cc3)c(CC3CCC(C(=O)O)C3)nc2c1)c1ccccc1 (stereo partly drawn) [compound 394, 3-((3-(4-chlorophenyl)-7-(((R)-1-phenylethyl)carbamoyl)quinoxalin-2-yl)methyl)cyclopentane-carboxylic acid]	2.1 to 20
O=C(N[C@H](c1ccccc1)C(F)(F)F)c1ccc2nc(-c3ccc(Cl)cc3)c(CC3CCC(C(=O)O)C3)nc2c1 (stereo partly drawn) [compound 395, 3-((3-(4-chlorophenyl)-7-(((R)-2,2,2-trifluoro-1-phenylethyl)carbamoyl)quinoxalin-2-yl)methyl)cyclopentane-carboxylic acid]	2.1 to 20
O=C(O)C1CCC(Cc2nc3cc(C(=O)N4CC(c5ccc(F)cc5)C4)ccc3nc2-c2ccc(Cl)cc2)C1 (stereo not shown) [compound 396, 3-((3-(4-chlorophenyl)-7-(3-(4-fluorophenyl)azetidine-1-carbonyl)quinoxalin-2-yl)methyl)cyclopentanecarboxylic acid]	2.1 to 20
O=C(O)C1CCC(Cc2nc3cc(C(=O)N4CC(c5cccc(F)c5)C4)ccc3nc2-c2ccc(Cl)cc2)C1 (stereo not shown) [compound 397, 3-((3-(4-chlorophenyl)-7-(3-(3-fluorophenyl)azetidine-1-carbonyl)quinoxalin-2-yl)methyl)cyclopentane-carboxylic acid]	2.1 to 20

Other lines, results leading:

Ki [nM]	Structure (SMILES)
2.1 to 20	O=C(O)CCCCc1nc2cc(C(=O)N[C@H]3CCCc4cc(F)ccc43)ccc2nc1-c1ccccc1 [compound 385, (S)-5-(7-((6-fluoro-1,2,3,4-tetrahydronaphthalen-1-yl)carbamoyl)-3-phenylquinoxalin-2-yl)pentanoic acid]
0.1 to 2	O=C(O)CCCCc1nc2cc(C(=O)N[C@@H]3CCCc4cc(Cl)ccc43)ccc2nc1-c1ccccc1 [compound 386, (R)-5-(7-((6-chloro-1,2,3,4-tetrahydronaphthalen-1-yl)carbamoyl)-3-phenylquinoxalin-2-yl)pentanoic acid]
2.1 to 20	O=C(O)CCCCc1nc2cc(C(=O)N[C@H]3CCCc4cc(Cl)ccc43)ccc2nc1-c1ccccc1 [compound 387, (S)-5-(7-((6-chloro-1,2,3,4-tetrahydronaphthalen-1-yl)carbamoyl)-3-phenylquinoxalin-2-yl)pentanoic acid]
2.1 to 20	O=C(O)CCCCc1nc2cc(C(=O)N[C@H]3CCCc4ccccc43)ccc2nc1-c1ccccc1 [compound 388, (S)-5-(3-phenyl-7-((1,2,3,4-tetrahydronaphthalen-1-yl)carbamoyl)quinoxalin-2-yl)pentanoic acid]
0.1 to 2	COc1ccc(C2CN(C(=O)c3ccc4nc(-c5ccccc5)c(CCCCC(=O)O)nc4c3)C2)cc1 [compound 389, 5-(7-(3-(4-methoxyphenyl)azetidine-1-carbonyl)-3-phenylquinoxalin-2-yl)pentanoic acid]
0.1 to 2	COc1cccc(C2CN(C(=O)c3ccc4nc(-c5ccccc5)c(CCCCC(=O)O)nc4c3)C2)c1 [compound 390, 5-(7-(3-(3-methoxyphenyl)azetidine-1-carbonyl)-3-phenylquinoxalin-2-yl)pentanoic acid]
2.1 to 20	CC(CCCc1nc2cc(C(=O)N[C@H](C)c3ccc(Cl)cc3)ccc2nc1-c1ccc(Cl)cc1)C(=O)O (stereo partly drawn) [compound 391, 5-(3-(4-chlorophenyl)-7-(((R)-1-(4-chlorophenyl)ethyl)carbamoyl)quinoxalin-2-yl)-2-methylpentanoic acid]
